# Results published in US20230321171A1, “ANTI-COCCIDIAL COMPOSITION COMPRISING MANGOSTEEN AND USES THEREOF” (CJ CHEILJEDANG CORPORATION, priority 2020, published 2023).
# Assays:
# [1] = Broiler growth effect (daily weight gain) due to intake in feed; format: in vivo, Ross broilers; conditions: for End body weight: non-infected broilers
# Procedure: An efficacy evaluation test was performed in an animal experiment facility in Gyeongsangnam-do, South Korea. One-day-old female Ross broilers were individually weighed and randomly divided into groups to use in an experiment. Matters and conditions for experimental design were described in Table 16.
# A breeding farm was managed according to the Korean poultry breeding management guidelines. Cages and the breeding farm were cleaned and disinfected before starting the test. The temperature of […] and the humidity of 40 to 50% of the breeding farm were maintained, and it was continuously monitored.
# For the feed, Korea Feed A1-choi product was used, and each material (salinomycin (Cheil Bio Cheilsalino-60 product), xanthone (Sigma Aldrich X600 product), and the mangosteen extract prepared in Example 1-2 above) was added to the feed, respectively, at a concentration described in Table 17 below to be self-mixed. Antibiotics and supplements were not used in general feed and mixed feed, and no anticoccidial agent other than each material was added. Broilers were fed ad libitum throughout the experiment period. After putting 20 1-day-age broilers in cages randomly placed for each of the control group or test group and breeding, general feed was fed for 7 days, and then the mixed feed prepared above was ingested by dividing by control group or test group. The feed formulation administered to the control group (negative control group or positive control group) and test group was described in Table 17 below.
# The body weight before feeding and on the 7th day after feeding the feed of Table 16 above into individuals was measured, and the difference was divided by the number of days to calculate the daily weight gain (ADG, g/d), and the result was shown in Table 18. For comparison between 6 treatment groups, Duncan post-test multiple comparison method was used, and statistical significance was verified using a SAS statistical program, and the result was shown in Table 18.
# [2] = tested on: RAW264.7(Mouse macrophage cell); assay: Cytotoxicity, MTS analysis, RAW264.7; conditions: 3.1~500 ppm/well, 14 hours + 2 hours MTS, vs 5% DMSO treatment group
# Text: In the present example, using MTS analysis method (3-(4,5-[…])-5-(3-carboxymethoxyphenyl)-2-(4-sulfophenyl)-2H-tetrazolium, promega, USA), an effect on survival of cells of the mangosteen extract was investigated.
# The cell lines utilized in cytotoxicity evaluation were (1) MDBK(Madin-Darby Bovine Kidney Epithelial Cells) and (2) RAW264.7(Mouse macrophage cell), and all of them were purchased from ATCC and used.
# Each cell was aliquoted at a concentration of 1×10^5 cell/well in a 96-well cell culture plate, and cultured at 37° C. for 24 hours, and then each material (mangosteen extract, xanthone, alpha-mangostin and epicatechin) was treated by concentration (3.1˜500 ppm/well) and cultured at a temperature of 37° C.
# [3] = tested on: Eimeria tenella; assay: Protozoan (sporozoite) direct killing ability, Eimeria tenella; format: cell-based; conditions: for Eimeria tenella protozoal death rate (%): compared to PBS-treated negative control group
# Procedure: (§1) In the present example, protozoan (sporozoite) direct killing ability evaluation was conducted against 3 representative Eimeria kinds known to be infected in most farms (E. tenella, E. acervulina, E. maxima).
# (§2) A certain amount of oocysts of each protozoan was put in a tube containing glass beads and pulverized, and then to remove the crushed oocyst cell wall and other debris, internal sporocysts were purified using the percoll density gradient, and washed with PBS solution. A reagent comprising sodium taurocholic acid (Sigma aldrich, USA) and trypsin (Gibco, USA), respectively, was treated to sporocysts of Eimeria tenella, Eimeria acervulina and Eimeria maxima for excystation and they were incubated, and then they were washed with PBS solution once and protozoa were obtained.
# (§3) After reacting the mangosteen pericarp extract, epicatechin, alpha-mangostin, xanthone and anticoccidial agents, salinomycin and diclazuril (hereinafter, material) with 3 kinds of Eimeria protozoa at various concentrations of 1 to 500 ppm, respectively, only alive protozoa (sporozoites) were counted through microscopic observation. Then, the death rate (%) of the protozoa when each material was treated compared to the PBS-treated negative control group was calculated and shown in Table 8 to Table 10 and Table 12, respectively, and the minimum concentration which directly killed the protozoa by 100% was shown in Table 11 below.
# [4] = tested on: Eimeria maxima; assay: Protozoan (sporozoite) direct killing ability, Eimeria maxima; format: cell-based; conditions: for Eimeria maxima protozoal death rate (%): compared to PBS-treated negative control group
# Procedure: as §1, §2, §3
# [5] = formulated feed 125 ppm for 7 days
# [6] = formulated feed 250 ppm for 7 days
smiles,measurement,setting,value
"O=c1c2ccccc2oc2ccccc12 [Xanthone, xanthone]","Daily weight gain compared to the negative control group, in words","[1]; Table 18, Duncan p < 0.05, mangosteen extract also vs positive control and xanthone groups",rather reduced
same,Daily weight gain (ADG),[1]; [5],43.86 g/day
same,"End-initial body weight (7 days, g)",[1]; [5],307 g
same,End body weight,[1]; [5],509 g
same,Daily weight gain (ADG),[1]; [6],40.57 g/day
same,"End-initial body weight (7 days, g)",[1]; [6],284 g
same,End body weight,[1]; [6],485 g
same,Minimum concentrataion of cytotoxicity at which cells of 50% or more survive (ppm),[2],≥62.5 ppm
same,Eimeria tenella protozoal death rate (%),[3]; 1 ppm,0%
same,Eimeria tenella protozoal death rate (%),[3]; 5 ppm,0%
same,Eimeria tenella protozoal death rate (%),[3]; 10 ppm,0%
same,Eimeria tenella protozoal death rate (%),[3]; 50 ppm,0%
same,Eimeria tenella protozoal death rate (%),[3]; 100 ppm,0%
same,Eimeria tenella protozoal death rate (%),[3]; 125 ppm,10%
same,Eimeria tenella protozoal death rate (%),[3]; 250 ppm,0%
same,Eimeria tenella protozoal death rate (%),[3]; 500 ppm,15%
same,Minimum concentrataion of killing protozoa 100% (ppm),"[3]; Eimeria tenella, Table 15, method similar to Example 2-1",≥500 ppm
same,"Minimum concentration for killing 100% protozoa (ppm), Eimeria tenella",[3]; tested 1 to 500 ppm,>500 ppm
same,Eimeria maxima protozoal death rate (%),[4]; 1 ppm,0%
same,Eimeria maxima protozoal death rate (%),[4]; 5 ppm,0%
same,Eimeria maxima protozoal death rate (%),[4]; 10 ppm,0%
same,Eimeria maxima protozoal death rate (%),[4]; 50 ppm,0%
same,Eimeria maxima protozoal death rate (%),[4]; 100 ppm,0%
same,Eimeria maxima protozoal death rate (%),[4]; 125 ppm,0%
same,Eimeria maxima protozoal death rate (%),[4]; 250 ppm,5%
same,Eimeria maxima protozoal death rate (%),[4]; 500 ppm,12%
same,"Minimum concentration for killing 100% protozoa (ppm), Eimeria maxima",[4]; tested 1 to 500 ppm,>500 ppm
